# Source: patent US20230414735A1, “NEOANTIGENS AND METHODS OF THEIR USE” (priority 2016, published 2023)
# Where no end group is shown, it is not given here.
# System: HLA Class I molecules
# Experiment: HLA class I binding stability assay (pMHC-I complex dissociation, 125I-labeled β2m, scintillation counts)
# Design: species or system human
# Conditions: allele A02.01; 37° C.
row,Molecule,Stability (T1/2 (h))
1,CSCC[C@H](NC(=O)[C@@H](NC(=O)[C@H](Cc1ccc(O)cc1)NC(=O)[C@H](C)NC(=O)[C@H](CCSC)NC(=O)[C@@H](NC(=O)[C@@H](N)Cc1ccc(O)cc1)C(C)C)C(C)C)C(=O)N[C@@H](C)C(=O)NCC(=O)N[C@H](C(=O)O)C(C)C,20.9 h
2,CC[C@H](C)[C@H](NC(=O)[C@H](Cc1ccc(O)cc1)NC(=O)[C@H](CC(C)C)NC(=O)[C@@H](N)CC(C)C)C(=O)N[C@H](C(=O)N[C@@H](C)C(=O)N[C@@H](Cc1ccccc1)C(=O)N[C@@H](Cc1ccccc1)C(=O)N[C@@H](CC(C)C)C(=O)O)[C@@H](C)O,17 h
3,CC[C@H](C)[C@H](NC(=O)[C@H](CO)NC(=O)[C@H](Cc1c[nH]c2ccccc12)NC(=O)[C@H](Cc1c[nH]cn1)NC(=O)[C@H](C)NC(=O)[C@@H]1CCCN1C(=O)[C@H](CCSC)NC(=O)[C@H](CC(C)C)NC(=O)[C@@H](N)CO)C(=O)O,5 h
4,CC[C@H](C)[C@H](NC(=O)[C@@H]1CCCN1C(=O)[C@H](CC(C)C)NC(=O)[C@H](Cc1ccccc1)NC(=O)[C@H](CC(C)C)NC(=O)[C@H](CO)NC(=O)[C@H](CC(=O)O)NC(=O)[C@@H](NC(=O)[C@H](CC(C)C)NC(=O)[C@@H](N)CCSC)[C@@H](C)O)C(=O)O,1 h
5,CC[C@H](C)[C@H](NC(=O)[C@@H]1CCCN1C(=O)[C@H](CCCNC(=N)N)NC(=O)[C@H](Cc1c[nH]c2ccccc12)NC(=O)[C@H](CC(N)=O)NC(=O)[C@H](CCSC)NC(=O)CNC(=O)CNC(=O)[C@H](CCSC)NC(=O)[C@@H](N)CS)C(=O)O,0.4 h
6,IIIEYCFYG,1.2 h
7,CC[C@H](C)[C@H](NC(=O)[C@@H](NC(=O)[C@H](CC(C)C)NC(=O)[C@@H](NC(=O)[C@@H]1CCCN1C(=O)[C@H](CCCNC(=N)N)NC(=O)[C@H](Cc1c[nH]c2ccccc12)NC(=O)[C@H](CC(N)=O)NC(=O)[C@H](CCSC)NC(=O)CN)[C@@H](C)CC)[C@@H](C)O)C(=O)O,0.5 h

# The next lines start with the values.
row,Stability (T1/2 (h)),Molecule
1,10.8 h,CC(C)C[C@H](NC(=O)[C@H](CO)NC(=O)[C@H](CS)NC(=O)[C@H](CCC(=O)O)NC(=O)[C@H](Cc1c[nH]c2ccccc12)NC(=O)[C@H](CC(C)C)NC(=O)[C@H](C)NC(=O)[C@H](CC(C)C)NC(=O)[C@H](CC(C)C)NC(=O)[C@@H](N)Cc1ccccc1)C(=O)O
2,0.4 h,CC[C@H](C)[C@H](NC(=O)[C@H](CO)NC(=O)[C@H](Cc1c[nH]c2ccccc12)NC(=O)[C@H](Cc1c[nH]cn1)NC(=O)[C@H](C)NC(=O)[C@@H]1CCCN1C(=O)[C@H](CCSC)NC(=O)[C@H](CC(C)C)NC(=O)[C@H](CO)NC(=O)[C@@H](N)CC(C)C)C(=O)O
3,9.5 h,CC(C)C[C@H](NC(=O)[C@@H](N)Cc1ccccc1)C(=O)N[C@@H](CCC(N)=O)C(=O)N[C@@H](CCC(=O)O)C(=O)N[C@@H](CCC(N)=O)C(=O)N[C@@H](Cc1ccc(O)cc1)C(=O)N[C@@H](Cc1c[nH]cn1)C(=O)N[C@@H](CCC(=O)O)C(=O)N[C@@H](C)C(=O)O
4,0.6 h,CC[C@H](C)[C@H](NC(=O)[C@H](CCCCN)NC(=O)[C@H](CO)NC(=O)[C@H](CCC(=O)O)NC(=O)[C@H](C)NC(=O)[C@H](CCCCN)NC(=O)[C@H](CC(C)C)NC(=O)[C@H](Cc1ccccc1)NC(=O)[C@H](CCSC)NC(=O)[C@@H](N)Cc1ccc(O)cc1)C(=O)O
5,0.4 h,CC[C@H](C)[C@H](NC(=O)[C@@H](NC(=O)[C@H](CC(C)C)NC(=O)[C@@H](NC(=O)[C@@H]1CCCN1C(=O)[C@H](CCCNC(=N)N)NC(=O)[C@H](CCC(N)=O)NC(=O)[C@H](CC(N)=O)NC(=O)[C@H](CCSC)NC(=O)CN)[C@@H](C)CC)[C@@H](C)O)C(=O)O
6,18.7 h,CC(C)C[C@H](NC(=O)[C@@H](N)CCCNC(=N)N)C(=O)N[C@@H](CO)C(=O)N[C@@H](CO)C(=O)N[C@@H](CS)C(=O)N[C@H](C(=O)N1CCC[C@H]1C(=O)N[C@H](C(=O)N[C@@H](C)C(=O)O)C(C)C)C(C)C
7,2.8 h,CC(C)C[C@H](NC(=O)[C@H](C)NC(=O)[C@@H](NC(=O)[C@H](CCCNC(=N)N)NC(=O)[C@H](CO)NC(=O)[C@H](CC(=O)O)NC(=O)[C@H](CO)NC(=O)[C@H](CC(C)C)NC(=O)[C@@H](N)CCCCN)[C@@H](C)O)C(=O)O [KLSDSRTAL]

# Same assay, conditions: allele A02.01; pMHC-I dissociation at 37° C.
row,Molecule,Stability (T1/2 (h))
1,CC[C@H](C)[C@H](NC(=O)[C@H](CC(C)C)NC(=O)[C@@H](N)CCC(N)=O)C(=O)N[C@@H](CCSC)C(=O)N[C@@H](CCC(N)=O)C(=O)N[C@@H](CC(C)C)C(=O)N[C@@H](CCSC)C(=O)N1CCC[C@H]1C(=O)N[C@@H](Cc1ccccc1)C(=O)O,0.3 h
2,CC(C)[C@H](NC(=O)[C@H](CO)NC(=O)[C@H](Cc1ccccc1)NC(=O)[C@H](Cc1ccccc1)NC(=O)[C@H](Cc1ccccc1)NC(=O)[C@H](Cc1ccccc1)NC(=O)[C@H](CS)NC(=O)[C@@H](NC(=O)[C@@H](N)CO)C(C)C)C(=O)O,9.4 h
3,KVLQMDFLV,6.4 h
4,CC[C@H](C)[C@H](NC(=O)[C@H](Cc1ccccc1)NC(=O)[C@H](CCCNC(=N)N)NC(=O)[C@@H]1CCCN1C(=O)[C@H](CC(C)C)NC(=O)[C@@H](N)CO)C(=O)N[C@@H](CC(C)C)C(=O)N[C@@H](CCSC)C(=O)N[C@@H](CCC(=O)O)C(=O)N[C@@H](CC(C)C)C(=O)O,0.5 h
5,CSCC[C@H](NC(=O)[C@H](CC(C)C)NC(=O)[C@H](CCC(N)=O)NC(=O)[C@@H](N)CCSC)C(=O)N1CCC[C@H]1C(=O)N[C@@H](Cc1ccccc1)C(=O)NCC(=O)N[C@@H](CS)C(=O)N[C@@H](CC(C)C)C(=O)N[C@@H](CC(C)C)C(=O)O,0.4 h

# Continued, values first:
row,Stability (T1/2 (h)),Molecule
1,0.4 h,CSCC[C@H](NC(=O)[C@H](CC(C)C)NC(=O)[C@H](CCC(N)=O)NC(=O)[C@@H](N)CCSC)C(=O)N1CCC[C@H]1C(=O)N[C@@H](Cc1ccccc1)C(=O)NCC(=O)N[C@@H](CS)C(=O)N[C@@H](CC(C)C)C(=O)O
2,0.6 h,CC(C)C[C@H](NC(=O)[C@H](Cc1c[nH]cn1)NC(=O)[C@H](CCC(=O)O)NC(=O)[C@H](Cc1ccccc1)NC(=O)[C@H](CCCCN)NC(=O)[C@H](CC(=O)O)NC(=O)[C@H](CCC(N)=O)NC(=O)[C@H](CC(C)C)NC(=O)[C@@H](N)CCC(N)=O)C(=O)O
3,3 h,CSCC[C@H](NC(=O)[C@H](CCC(=O)O)NC(=O)[C@H](CCCNC(=N)N)NC(=O)[C@H](CC(C)C)NC(=O)[C@H](Cc1ccc(O)cc1)NC(=O)[C@H](CC(N)=O)NC(=O)[C@H](CC(C)C)NC(=O)[C@H](CC(C)C)NC(=O)[C@@H](N)CO)C(=O)O

# Same assay, conditions: allele B07.02; 37° C.
row,Stability (T1/2 (h)),Molecule
1,3 h,KPTRAATVSV
2,4.9 h,C[C@H](NC(=O)[C@H](CO)NC(=O)[C@H](C)NC(=O)[C@@H]1CCCN1C(=O)[C@H](C)NC(=O)[C@@H]1CCCN1C(=O)[C@H](CCCNC(=N)N)NC(=O)[C@@H]1CCCN1C(=O)[C@@H](N)Cc1c[nH]cn1)C(=O)O
3,6.5 h,CSCC[C@H](NC(=O)[C@H](Cc1c[nH]c2ccccc12)NC(=O)[C@H](Cc1c[nH]cn1)NC(=O)[C@H](CC(N)=O)NC(=O)[C@H](CCCNC(=N)N)NC(=O)[C@H](CCCNC(=N)N)NC(=O)[C@H](CCC(N)=O)NC(=O)[C@H](CO)NC(=O)[C@@H]1CCCN1C(=O)[C@@H](N)CC(C)C)C(=O)O
4,6.8 h,CC(C)C[C@H](NC(=O)[C@H](C)NC(=O)[C@@H](NC(=O)[C@H](CCCNC(=N)N)NC(=O)[C@H](CO)NC(=O)[C@H](CC(=O)O)NC(=O)[C@H](CO)NC(=O)[C@H](CC(C)C)NC(=O)[C@@H](N)CCCCN)[C@@H](C)O)C(=O)O [KLSDSRTAL]

# Same assay, conditions: allele B07.02; pMHC-I dissociation at 37° C.
row,Stability (T1/2 (h)),Molecule
1,0.4 h,CC[C@H](C)[C@H](NC(=O)[C@H](Cc1ccccc1)NC(=O)[C@H](CCCNC(=N)N)NC(=O)[C@@H]1CCCN1C(=O)[C@H](CC(C)C)NC(=O)[C@@H](N)CO)C(=O)N[C@@H](CC(C)C)C(=O)N[C@@H](CCSC)C(=O)N[C@@H](CCC(=O)O)C(=O)N[C@@H](CC(C)C)C(=O)O

# Same assay, conditions: allele B08.01; 37° C.
row,Stability (T1/2 (h)),Molecule
1,0.4 h,CC[C@H](C)[C@H](NC(=O)[C@H](CCCCN)NC(=O)[C@H](CO)NC(=O)[C@H](CCC(=O)O)NC(=O)[C@H](C)NC(=O)[C@H](CCCCN)NC(=O)[C@H](CC(C)C)NC(=O)[C@H](Cc1ccccc1)NC(=O)[C@H](CCSC)NC(=O)[C@@H](N)Cc1ccc(O)cc1)C(=O)O
2,0.7 h,CSCC[C@H](NC(=O)[C@H](Cc1c[nH]c2ccccc12)NC(=O)[C@H](Cc1c[nH]cn1)NC(=O)[C@H](CC(N)=O)NC(=O)[C@H](CCCNC(=N)N)NC(=O)[C@H](CCCNC(=N)N)NC(=O)[C@H](CCC(N)=O)NC(=O)[C@H](CO)NC(=O)[C@@H]1CCCN1C(=O)[C@@H](N)CC(C)C)C(=O)O
